Source: publication PMC12247152, “Nature‐Inspired Compounds Targeting Escherichia coli WrbA as Biofilm‐Modulating Agents: Computational Design, Synthesis, and Biological Evaluation” (Archiv Der Pharmazie, 2025)

molecular target: T1, WrbA (Escherichia coli, UniProt P0A8G6); assay: microscale thermophoresis (MST); assay type: binding; settings: read-out: K d ± confidence
T1 construct: recombinant WrbA protein
T1 sequence (P0A8G6 2-198): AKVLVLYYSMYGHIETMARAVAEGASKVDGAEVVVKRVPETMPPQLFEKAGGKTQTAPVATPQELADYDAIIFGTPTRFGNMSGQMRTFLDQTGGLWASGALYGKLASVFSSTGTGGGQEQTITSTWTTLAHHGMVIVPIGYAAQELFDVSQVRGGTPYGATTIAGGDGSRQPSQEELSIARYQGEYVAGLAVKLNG

Which Kd does the source give for CC1(C)CC(=O)c2c(O)cc(OCC(=O)NCc3cccc(Cl)c3)cc2O1 [1d, N‐(3‐Chlorobenzyl)‐2‐[(5‐hydroxy‐2,2‐dimethyl‐4‐oxochroman‐7‐yl)oxy]acetamide] here?
The Kd was 5 ± 1.8 µM.

For CC1(C)CC(=O)c2c(O)cc(OCC(N)=O)cc2O1 [1a, 2‐[(5‐Hydroxy‐2,2‐dimethyl‐4‐oxochroman‐7‐yl)oxy]acetamide], which Kd is on record?
Its Kd is 18.7 ± 6.3 µM.

How did the Kd turn out when CC1(C)CC(=O)c2c(O)cc(OCC(=O)NCc3cccc4ccccc34)cc2O1 [1e, 2‐[(5‐Hydroxy‐2,2‐dimethyl‐4‐oxochroman‐7‐yl)oxy]‐N‐(naphthalen‐1‐ylmethyl)acetamide] was run?
The Kd was 2.1 ± 1.3 µM.

For CC1(C)CC(=O)c2c(O)cc(OCC(=O)NCCNCc3ccccc3)cc2O1 [1c, N‐[2‐(Benzylamino)ethyl]‐2‐[(5‐hydroxy‐2,2‐dimethyl‐4‐oxochroman‐7‐yl)oxy]acetamide], which Kd is on record?
Its Kd is 1.4 ± 0.7 µM.
